Test results as given in patent US20230320956A1, “DIARYLALKANE COMPOUNDS AND COMPOSITIONS FOR USE WITH SKIN AGING AND METHODS OF PRODUCTION THEREOF” (Unigen, Inc., priority 2022, published 2023).

Tests used:
[1] = test system: skin brightness/luminance, Asian subjects; test: Self-assessment of skin brightness/luminance, Asian subjects; format: in vivo, human; details: Week 8
Experimental: Included subjects were: • 1. Female subjects between the ages of 35-66 (inclusive) in general good health • 2. Asian subjects who had skin brightness/luminance score of “5” (moderately dull/sallow appearance) or greater on the face (for qualification only) as assessed by a trained technician and whose brightness/luminance were evaluated according to the following scale: 0—No dullness/sallowness visible, 1-3—Slightly dull/sallow appearance, 4-6—Moderately dull/sallow appearance, 7-9—Severely dull/sallow appearance. • 3. […] Individuals who could read, understand, and sign the Informed Consent form. • 5. […] At all visits, a trained technician evaluated the face of each subject for irritation. […] Results: Skin brightness/luminance (Asian subjects): In order to determine any changes in skin brightness/luminance, skin brightness (luminosity) was analyzed by Visia CR®. Facial luminance was a single number calculated based on the uniformity of the lightening of the image. […] There were no significant changes to brightness/luminance as assessed by the Visia CR® analysis at any of the clinic visits, although the Mean Score for skin brightness/luminance trended toward an increase at 4 and 8 weeks after starting dimethoxytolyl propylresorcinol use compared to Baseline (Table 24), indicating an improvement in skin brightness/luminance.

[2] = test system: skin blotchiness/age spots, Caucasian subjects; test: Self-assessment of skin blotchiness/age spots, Caucasian subjects; format: in vivo, human; details: Week 8
Experimental: Skin Blotchiness/Age Spots (Caucasian subjects): In order to determine any changes in skin blotchiness/age spots, chroma was analyzed by Visia CR®. The degree to which a color is free from being mixed with other colors is a good indication of its chromacity. An increase in the chroma score represented an improvement in skin blotchiness/age spots. A decrease represented a worsening. At each visit, Caucasian subjects rated their skin blotchiness/age spots according to the following scale: 0—No skin blotchiness or age spots visible, 1-3—Slight areas of skin blotchiness or age spots visible, 4-6—Moderate areas of skin blotchiness or age spots visible, 7-9—Severe areas of skin blotchiness or age spots visible. Additionally, at the final visit, subjects completed a questionnaire. There were no significant changes to skin blotchiness/age spots as assessed by the Visia CR® analysis at any of the clinic visits, although the Mean Score for skin blotchiness/age spots trended toward an increase at all 2, 4, and 8 weeks after starting dimethoxytolyl propylresorcinol use compared to Baseline, indicating an improvement in skin blotchiness/age spots (Table 27).

COc1ccc(CCCc2ccc(O)cc2O)c(OC)c1C [dimethoxytolyl propylresorcinol, 1-(3-methyl-2,4-dimethoxyphenyl)-3-(2′,4′-dihydroxyphenyl)-propane]
Self-Assessment Skin Brightness/Luminance % Improvement from Baseline [1]: 13%
Self-Assessment Skin Blotchiness/Age Spots % Improvement from Baseline [2]: 37%
